For eight compounds, TGI and GI50 results are on record in PubChem BioAssay (NCI).

Among the test systems are MOLT-4 leukemia; SNB-19 CNS; DU-145 prostate; EKVX NSCLC; OVCAR-4 ovarian; MCF7 breast; NCI-H522 lung; RPMI-8226 leukemia; A498 renal; SK-MEL-28 melanoma.
What all share (experiment): inhibition of tumour cell growth, NCI panel, 48 h

Where “and” joins values, the source holds several entries; their conditions need not be identical. Identical values can stand only once.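 Step 1: Grow cells in 96-well plates. Step 2: Expose to compound for 48 hours at 5 concentrations. Step 3: Interpolate endpoints linearly; if unreached, use highest concentration. At the GI50, growth is halved. TGI denotes the concentration required for complete inhibition of growth.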

For the compound `CC(C)c1ccc(C(c2c(O)c3ccccc3oc2=O)c2c(O)c3ccccc3oc2=O)cc1`, the TGI with MOLT-4 leukemia was 21.9 µM; with SNB-19 CNS, 49.9 µM; in the assay on DU-145 prostate it was more than 81.8 µM; in the assay on EKVX NSCLC it was 55.2 µM; in the assay on OVCAR-4 ovarian, 94 µM; in the assay on MCF7 breast, 86 µM. Also, the TGI in the assay with NCI-H522 lung was 45.6 µM; in the assay on RPMI-8226 leukemia, 45.9 µM; with A498 renal, 35.4 µM; in the assay on SK-MEL-28 melanoma, 40 µM.

For `CCCCCCCCCCCCSC1=CC(=O)C=CC1=O`, the GI50 with MOLT-4 leukemia was 0.218 µM; in the assay with SNB-19 CNS, 1.69 µM; in the assay with DU-145 prostate it was 15.1 µM; in the assay on OVCAR-4 ovarian, 2.17 µM; in the assay with MCF7 breast, 2.22 µM; in the assay on NCI-H522 lung, 0.191 µM. Further, the GI50 was 0.804 µM with RPMI-8226 leukemia, 7.96 µM with A498 renal and 13.6 µM in the assay on SK-MEL-28 melanoma. For the same compound, the TGI in the assay on MOLT-4 leukemia is 8.97 µM; in the assay with SNB-19 CNS, more than 28.6 µM; in the assay with DU-145 prostate it was more than 50 µM; in the assay on OVCAR-4 ovarian it was 9 µM; in the assay with MCF7 breast it was more than 50 µM; in the assay on NCI-H522 lung, 0.763 µM. In addition, the TGI was 3.46 µM in the assay on RPMI-8226 leukemia, 24.3 µM in the assay with A498 renal and more than 39.9 µM in the assay with SK-MEL-28 melanoma.

Take `O=C(C(=O)c1cccnc1)c1cccnc1`: the GI50 in the assay on MOLT-4 leukemia, in the assay with SNB-19 CNS, in the assay on DU-145 prostate, with EKVX NSCLC, in the assay with OVCAR-4 ovarian and in the assay with MCF7 breast was more than 100 µM in each case. In addition, the GI50 in the assay with NCI-H522 lung, in the assay on RPMI-8226 leukemia, with A498 renal and in the assay on SK-MEL-28 melanoma was more than 100 µM each time. In addition, the TGI in the assay with MOLT-4 leukemia, in the assay with SNB-19 CNS, with DU-145 prostate, in the assay on EKVX NSCLC, in the assay on OVCAR-4 ovarian and in the assay with MCF7 breast was more than 100 µM throughout. Also, the TGI in the assay with NCI-H522 lung, in the assay with RPMI-8226 leukemia, with A498 renal and in the assay with SK-MEL-28 melanoma was more than 100 µM in each case.

In the case of `CN1CCN(C(=O)[C@@]2(C)CC[C@]3(C)CC[C@]4(C)C(=CC[C@@H]5[C@@]6(C)CC[C@H](OC(=O)c7cccnc7)C(C)(C)[C@@H]6CC[C@]54C)[C@@H]3C2)CC1`, the GI50 in the assay on MOLT-4 leukemia is 1.92 µM; in the assay with SNB-19 CNS, 1.74 µM; with DU-145 prostate it was 1.81 µM; in the assay on EKVX NSCLC it was 1.74 µM; in the assay with OVCAR-4 ovarian it was 1.78 µM; with MCF7 breast, 1.49 µM. Besides, the GI50 with NCI-H522 lung is 1.95 µM; with RPMI-8226 leukemia it was 1.87 µM; in the assay on A498 renal, 4.38 µM; with SK-MEL-28 melanoma, 1.79 µM. Besides, the TGI is 4.78 µM in the assay with MOLT-4 leukemia; 3.53 µM in the assay on SNB-19 CNS; 3.51 µM in the assay on DU-145 prostate; 3.86 µM in the assay on EKVX NSCLC; 3.59 µM with OVCAR-4 ovarian; 3.17 µM in the assay with MCF7 breast. The TGI turned out to be 4.17 µM in the assay with NCI-H522 lung, 5.81 µM in the assay on RPMI-8226 leukemia, 18.4 µM in the assay with A498 renal and 3.34 µM in the assay on SK-MEL-28 melanoma.

On to `O=C1c2c(c3c4ccccc4n(CCCCCCN4CCOCC4)c3c3[nH]c4ccccc4c23)C(=O)N1O`, for which the GI50 in the assay with MOLT-4 leukemia was 1.79 µM; in the assay with SNB-19 CNS, 10.4 µM; in the assay with DU-145 prostate, 11.5 µM; in the assay on EKVX NSCLC, more than 43.1 µM; with OVCAR-4 ovarian, 4.44 µM; in the assay on MCF7 breast, 2.07 µM. The GI50 with NCI-H522 lung is 1.58 µM; in the assay with RPMI-8226 leukemia, 2.57 µM; in the assay on A498 renal, 9.15 µM; with SK-MEL-28 melanoma, 1.96 µM. For the same compound, the TGI in the assay on MOLT-4 leukemia is 4.63 µM; with SNB-19 CNS it was more than 100 µM; with DU-145 prostate it was more than 100 µM; with EKVX NSCLC, more than 82.5 µM; in the assay with OVCAR-4 ovarian, 20.7 µM; with MCF7 breast it was 7.73 µM. The TGI stood at 4.15 µM in the assay with NCI-H522 lung, 7.76 µM in the assay with RPMI-8226 leukemia, 25.4 µM with A498 renal and 4.02 µM in the assay with SK-MEL-28 melanoma.

Turning to `O=c1[nH][nH]c(=O)c2c(O)c(-c3ccccc3)ncc12`, the GI50 was 35 µM and 173 µM in the assay with MOLT-4 leukemia; 47.6 µM and 71.6 µM in the assay on SNB-19 CNS; 58.5 µM and 144 µM in the assay on DU-145 prostate; 228 µM with EKVX NSCLC; 46 µM and 110 µM with OVCAR-4 ovarian; 47 µM and 199 µM in the assay with MCF7 breast. The GI50 is 42.3 µM and 70.2 µM in the assay on NCI-H522 lung; 79.2 µM and 283 µM in the assay with RPMI-8226 leukemia; 24.9 µM and 32.2 µM in the assay on A498 renal; 31.9 µM and 40.4 µM in the assay with SK-MEL-28 melanoma. Also, the TGI with MOLT-4 leukemia is more than 1000 µM; with SNB-19 CNS, 841 µM; with DU-145 prostate, more than 1000 µM; in the assay on EKVX NSCLC, 939 µM; in the assay with OVCAR-4 ovarian, 630 µM; in the assay with MCF7 breast, more than 1000 µM. The TGI with NCI-H522 lung is 376 µM; with RPMI-8226 leukemia it was 706 µM; in the assay with A498 renal it was 61.7 µM and 119 µM; in the assay on SK-MEL-28 melanoma, more than 1000 µM.

As for `CCOC1Oc2ccccc2C(=O)/C1=C\Nc1ccc(C(=O)O)c(O)c1` (stereo unspecified), the GI50 in the assay on MOLT-4 leukemia was more than 100 µM; in the assay on SNB-19 CNS it was 28.6 µM; in the assay with DU-145 prostate, 34.1 µM; in the assay with EKVX NSCLC, 36.7 µM; in the assay with MCF7 breast, 29.9 µM; in the assay on NCI-H522 lung, more than 100 µM. Moreover, the figures for the GI50 in the assay with RPMI-8226 leukemia, in the assay with A498 renal and in the assay on SK-MEL-28 melanoma were 20 µM, 30.6 µM and 23.9 µM, respectively. The TGI in the assay with MOLT-4 leukemia was more than 100 µM; in the assay with SNB-19 CNS, 94.4 µM; in the assay with DU-145 prostate, more than 100 µM; in the assay on EKVX NSCLC, 96.1 µM; in the assay on MCF7 breast, more than 100 µM; in the assay on NCI-H522 lung, more than 100 µM. Further, the TGI in the assay with RPMI-8226 leukemia is more than 100 µM; in the assay with A498 renal, 73.7 µM; in the assay on SK-MEL-28 melanoma, 65.9 µM.

For `Cc1cnc(-c2ccc(-c3ccc(NC(=O)Nc4cccc(C(F)(F)F)c4)cc3F)c3c2C(=O)NC3)[nH]1`, the GI50 in the assay on MOLT-4 leukemia was 1.37 µM; in the assay on SNB-19 CNS, 17.4 µM; in the assay on DU-145 prostate, 11.5 µM; in the assay with EKVX NSCLC, 26 µM; in the assay with OVCAR-4 ovarian, 8.96 µM; in the assay with MCF7 breast it was 2.04 µM. For the same compound, the GI50 was 15.4 µM with NCI-H522 lung, 10.7 µM in the assay on RPMI-8226 leukemia, 0.115 µM in the assay on A498 renal and 11.5 µM with SK-MEL-28 melanoma. Further, the TGI in the assay on MOLT-4 leukemia is more than 53.4 µM; with SNB-19 CNS, more than 53.4 µM; with DU-145 prostate, 35.6 µM; with EKVX NSCLC it was more than 50.6 µM; in the assay on OVCAR-4 ovarian, 23.8 µM; in the assay on MCF7 breast it was 25.3 µM. In addition, the TGI with NCI-H522 lung turned out to be 42.7 µM; in the assay with RPMI-8226 leukemia, 52.3 µM; in the assay on A498 renal, 3.13 µM; with SK-MEL-28 melanoma, 37.7 µM.
